Reference: patent publication US12077503B2, “Substituted cyclic amides and their use as herbicides” (FMC CORPORATION, priority 2015, dated 2024)

How the values were obtained:
Assay in all cases: Test C preemergence
Format in all cases: in vivo
[1] = tested on: Galium (catchweed bedstraw, Galium aparine); settings: for Plant response rating, Galium: scale 0 to 100, 0 no effect, 100 complete control
Method in brief: (§1)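 Visual 0 (no effect) to 100 (complete control) ratings versus controls, taken 13–15 d after treatment in the greenhouse; dash means no result. Compounds in a surfactant-containing non-phytotoxic solvent blend were applied preemergence to seeds in loam-sand soil or postemergence to 1- to 4-leaf plants (2–18 cm) in peat-based medium.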

[2] = tested on: barnyardgrass (Echinochloa crus-galli); settings: for Plant response rating, Barnyardgrass: scale 0 to 100, 0 no effect, 100 complete control
Method in brief: as §1

[3] = tested on: blackgrass (Alopecurus myosuroides); settings: for Plant response rating, Blackgrass: scale 0 to 100, 0 no effect, 100 complete control
Method in brief: as §1

corn (Zea mays) = settings: for Plant response rating, Corn: scale 0 to 100, 0 no effect, 100 complete control
Method in brief: as §1

[4] = tested on: crabgrass, large (large crabgrass, Digitaria sanguinalis); settings: for Plant response rating, Crabgrass, Large: scale 0 to 100, 0 no effect, 100 complete control
Method in brief: as §1

[5] = tested on: foxtail, giant (giant foxtail, Setaria faberii); settings: for Plant response rating, Foxtail, Giant: scale 0 to 100, 0 no effect, 100 complete control
Method in brief: as §1

[6] = tested on: johnsongrass (Sorghum halepense); settings: for Plant response rating, Johnsongrass: scale 0 to 100, 0 no effect, 100 complete control
Method in brief: as §1

[7] = tested on: lambsquarters (Chenopodium album); settings: for Plant response rating, Lambsquarters: scale 0 to 100, 0 no effect, 100 complete control
Method in brief: as §1

[8] = tested on: morningglory (Ipomoea coccinea); settings: for Plant response rating, Morningglory: scale 0 to 100, 0 no effect, 100 complete control
Method in brief: as §1

[9] = tested on: nutsedge, yellow (yellow nutsedge, Cyperus esculentus); settings: for Plant response rating, Nutsedge, Yellow: scale 0 to 100, 0 no effect, 100 complete control
Method in brief: as §1

[10] = tested on: oilseed rape (Brassica napus); settings: for Plant response rating, Oilseed Rape: scale 0 to 100, 0 no effect, 100 complete control
Method in brief: as §1

[11] = tested on: pigweed (Amaranthus retroflexus); settings: for Plant response rating, Pigweed: scale 0 to 100, 0 no effect, 100 complete control
Method in brief: as §1

[12] = tested on: ragweed (common ragweed, Ambrosia elatior); settings: for Plant response rating, Ragweed: scale 0 to 100, 0 no effect, 100 complete control
Method in brief: as §1

[13] = tested on: ryegrass, Italian (Italian ryegrass, Lolium multiflorum); settings: for Plant response rating, Ryegrass, Italian: scale 0 to 100, 0 no effect, 100 complete control
Method in brief: as §1

soybean (Glycine max) = settings: scale 0 to 100, 0 no effect, 100 complete control
Method in brief: as §1

[14] = tested on: velvetleaf (Abutilon theophrasti); settings: for Plant response rating, Velvetleaf: scale 0 to 100, 0 no effect, 100 complete control
Method in brief: as §1

[15] = tested on: waterhemp (common waterhemp, Amaranthus rudis); settings: for Plant response rating, Waterhemp: scale 0 to 100, 0 no effect, 100 complete control
Method in brief: as §1

[16] = tested on: wheat (winter wheat, Triticum aestivum); settings: for Plant response rating, Wheat: scale 0 to 100, 0 no effect, 100 complete control
Method in brief: as §1

[17] = 31 g ai/ha, 0 is no effect, 100 is complete control

## CC(C)Oc1cccc(C2CN(C)C(=O)C2C(=O)Nc2ccccc2S(C)(=O)=O)c1 (stereo not shown) [Compound 653]
[1]; [17]
  Plant response rating (scale of 0 to 100), Galium: 0
[1]; 62 g ai/ha
  Plant response rating, Galium: 100
[1]; 125 g ai/ha
  Plant response rating, Galium: 30
[1]; 250 g ai/ha
  Plant response rating, Galium: 40
[2]; [17]
  Plant response rating (scale of 0 to 100), Barnyardgrass: 20
[2]; 62 g ai/ha
  Plant response rating, Barnyardgrass: 55
[2]; 125 g ai/ha
  Plant response rating, Barnyardgrass: 80
[2]; 250 g ai/ha
  Plant response rating, Barnyardgrass: 90
[3]; [17]
  Plant response rating (scale of 0 to 100), Blackgrass: 0
[3]; 62 g ai/ha
  Plant response rating, Blackgrass: 15
[3]; 125 g ai/ha
  Plant response rating, Blackgrass: 60
[3]; 250 g ai/ha
  Plant response rating, Blackgrass: 90
Corn (Zea mays); [17]
  Plant response rating (scale of 0 to 100), Corn: 0
Corn (Zea mays); 62 g ai/ha
  Plant response rating, Corn: 0
Corn (Zea mays); 125 g ai/ha
  Plant response rating, Corn: 0
Corn (Zea mays); 250 g ai/ha
  Plant response rating, Corn: 20
[4]; [17]
  Plant response rating (scale of 0 to 100), Crabgrass, Large: 90
[4]; 62 g ai/ha
  Plant response rating, Crabgrass, Large: 95
[4]; 125 g ai/ha
  Plant response rating, Crabgrass, Large: 100
[4]; 250 g ai/ha
  Plant response rating, Crabgrass, Large: 100
[5]; [17]
  Plant response rating (scale of 0 to 100), Foxtail, Giant: 85
[5]; 62 g ai/ha
  Plant response rating, Foxtail, Giant: 95
[5]; 125 g ai/ha
  Plant response rating, Foxtail, Giant: 95
[5]; 250 g ai/ha
  Plant response rating, Foxtail, Giant: 100
[6]; [17]
  Plant response rating (scale of 0 to 100), Johnsongrass: 0
[6]; 62 g ai/ha
  Plant response rating, Johnsongrass: 0
[6]; 125 g ai/ha
  Plant response rating, Johnsongrass: 40
[6]; 250 g ai/ha
  Plant response rating, Johnsongrass: 55
[7]; [17]
  Plant response rating (scale of 0 to 100), Lambsquarters: 15
[7]; 62 g ai/ha
  Plant response rating, Lambsquarters: 35
[7]; 125 g ai/ha
  Plant response rating, Lambsquarters: 50
[7]; 250 g ai/ha
  Plant response rating, Lambsquarters: 60
[8]; [17]
  Plant response rating (scale of 0 to 100), Morningglory: 0
[8]; 62 g ai/ha
  Plant response rating, Morningglory: 0
[8]; 125 g ai/ha
  Plant response rating, Morningglory: 0
[8]; 250 g ai/ha
  Plant response rating, Morningglory: 0
[9]; [17]
  Plant response rating (scale of 0 to 100), Nutsedge, Yellow: 0
[9]; 62 g ai/ha
  Plant response rating, Nutsedge, Yellow: 0
[9]; 125 g ai/ha
  Plant response rating, Nutsedge, Yellow: 0
[9]; 250 g ai/ha
  Plant response rating, Nutsedge, Yellow: 25
[10]; [17]
  Plant response rating (scale of 0 to 100), Oilseed Rape: 0
[10]; 62 g ai/ha
  Plant response rating, Oilseed Rape: 0
[10]; 125 g ai/ha
  Plant response rating, Oilseed Rape: 30
[10]; 250 g ai/ha
  Plant response rating, Oilseed Rape: 85
[11]; [17]
  Plant response rating (scale of 0 to 100), Pigweed: 30
[11]; 62 g ai/ha
  Plant response rating, Pigweed: 20
[11]; 125 g ai/ha
  Plant response rating, Pigweed: 50
[11]; 250 g ai/ha
  Plant response rating, Pigweed: 85
[12]; [17]
  Plant response rating (scale of 0 to 100), Ragweed: 0
[12]; 62 g ai/ha
  Plant response rating, Ragweed: 5
[12]; 125 g ai/ha
  Plant response rating, Ragweed: 35
[12]; 250 g ai/ha
  Plant response rating, Ragweed: 60
[13]; [17]
  Plant response rating (scale of 0 to 100), Ryegrass, Italian: 0
[13]; 62 g ai/ha
  Plant response rating, Ryegrass, Italian: 10
[13]; 125 g ai/ha
  Plant response rating, Ryegrass, Italian: 20
[13]; 250 g ai/ha
  Plant response rating, Ryegrass, Italian: 25
Soybean (Glycine max); 125 g ai/ha
  Plant response rating, Soybean: 5
Soybean (Glycine max); 250 g ai/ha
  Plant response rating, Soybean: 40
[14]; [17]
  Plant response rating (scale of 0 to 100), Velvetleaf: 0
[14]; 62 g ai/ha
  Plant response rating, Velvetleaf: 25
[14]; 125 g ai/ha
  Plant response rating, Velvetleaf: 35
[14]; 250 g ai/ha
  Plant response rating, Velvetleaf: 50
[15]; [17]
  Plant response rating (scale of 0 to 100), Waterhemp: 35
[15]; 62 g ai/ha
  Plant response rating, Waterhemp: 30
[15]; 125 g ai/ha
  Plant response rating, Waterhemp: 50
[15]; 250 g ai/ha
  Plant response rating, Waterhemp: 80
[16]; [17]
  Plant response rating (scale of 0 to 100), Wheat: 0
[16]; 62 g ai/ha
  Plant response rating, Wheat: 0
[16]; 125 g ai/ha
  Plant response rating, Wheat: 0
[16]; 250 g ai/ha
  Plant response rating, Wheat: 40
